Assay results as given in patent US20120220664A1, “USE OF METFORMIN IN CANCER TREATMENT AND PREVENTION” (priority 2009, published 2012).

Tests used:
[1] = test system: cancer stem cells (CD44high/CD24low) and cancer cells (CD44low/CD24high) of transformed MCF-10A or MCF-7 cells; settings: doxorubicin, 0.1 mM metformin, or both; FIG. 3A
[2] = test system: MCF10A ER-Src xenograft tumors
[3] = test system: cancer stem cells (CD44high/CD24low) from MCF10A-ER-Src tumors; settings: after 3 cycles of treatment (day 25); FIG. 4B
[4] = test system: non-transformed cells (MCF10A-ER-Src); test: Growth of non-transformed MCF10A-ER-Src cells with metformin (FIG. 1A); format: cell-based, human; settings: 0.1 or 0.3 mM metformin, 24 hours
[5] = test system: MCF10A ER-Src cells; test: Morphological transformation of TAM-induced MCF10A ER-Src cells (phase-contrast); format: cell-based, human; settings: 0.1 mM metformin and/or TAM for 36 hours; data not shown
[6] = test system: MCF10A ER-Src cells; test: Wound healing motility / invasion assay; format: cell-based, human; settings: 0.1 mM metformin and/or TAM; data not shown
[7] = test system: MCF10A-ER-Src cells; test: Focus formation of TAM-treated MCF10A-ER-Src cells (FIG. 1B); format: cell-based, human
[8] = test system: MCF10A ER-Src cells; test: Colony formation assay in soft agar (FIG. 1B); format: cell-based, human; settings: TAM-treated cells
[9] = test system: MCF10A-ER-Src cells; test: Mammosphere formation (FIG. 1B); format: cell-based, human; settings: TAM-treated cells
[10] = test system: mammospheres derived from all four breast cancer cell lines (MCF10A ER-Src, MCF7, SKBR3, MDA-MB-468); test: Mammosphere growth, 6-day old mammospheres (FIG. 2); format: cell-based, human; settings: 0.1 mM metformin, within 48 hours
[11] = test system: sorted cancer stem cells and non-stem cancer cells of MCF10A ER-Src, MCF7, SKBR3 and MDA-MB-468; test: Growth of sorted cancer stem cells and non-stem cancer cells (FIG. 3B); format: cell-based, human; settings: 0.1 mM metformin, 0, 24, 48 hours, all four cancer cell lines
[12] = test system: MCF10A-ER-Src cancer stem cells; test: Tumor formation in nude mice by metformin-pretreated cancer stem cells (FIG. 3C); format: in vivo; settings: cells treated with 0.1 mM metformin for 1 hour prior to injection, month after injection
[13] = general statement; cited from earlier work

SMILES	killing of cancer stem cells versus cancer cells in the mixed transformed population [1]	decrease in tumor volume ([2]; after 15 days of treatment (3 cycles every 5 days, i.p.), 4 mg/kg doxorubicin)	time until tumor growth resumed after treatment ([2]; after treatment with doxorubicin alone, FIG. 4A)	rate of tumor growth after relapse ([2]; compared with absence of treatment)	tumor volume after an additional 10 days ([2]; day 35)	cancer stem cells in tumors [3]	growth of non-transformed cells [4]	morphological transformation [5]	invasive growth in wound-healing assays [6]	focus formation [7]	formation of colonies in soft agar [8]	generation of mammospheres [9]	number of mammospheres [10]	effect on sorted standard (non-stem) cancer cell population [11]	susceptibility of sorted cancer stem cells [11]	ability of cancer stem cells to form tumors in nude mice [12]	effect on tumors / tumor volume ([2]; after 15 days of treatment (3 cycles every 5 days, i.p.), 4 mg/kg doxorubicin, 100 μg/ml metformin, or both)	crossing of the blood brain barrier [13]
COc1cccc2c1C(=O)c1c(O)c3c(c(O)c1C2=O)C[C@@](O)(C(=O)CO)C[C@@H]3O[C@H]1C[C@H](N)[C@H](O)[C@H](C)O1 [doxorubicin]	kills cancer cells, but not cancer stem cells	2 fold	20 days	comparable to that observed in the initial disease	further reduction in tumor volume	easily detected												
CN(C)C(=N)N=C(N)N [metformin]	preferentially killed cancer stem cells						does not affect the growth of non-transformed cells	strongly inhibited	strongly inhibited	strongly inhibited	strongly inhibited	strongly inhibited	dramatic reduction in the number of mammospheres	essentially unaffected	quite susceptible	blocked the ability of these cells to form tumors	little effect	can cross the blood brain barrier
